{"source": "patent US20080268066A1", "about": "“Synergistic Formulation for Preventing and/or Treating Diabetes” (priority 2005, published 2008)", "origin": "cited, not measured here", "key": {"[1]": {"conditions": "intravenous 600 mg, 5 times, after two weeks; control group 2 points"}, "[2]": {"system": "women of polycystic ovary syndrome (PCOS)", "conditions": "daily dose of 1500 mg, 8 weeks later, about 20 women"}, "[3]": {"system": "patients with retinal degeneration", "conditions": "among 16 patients; supplement every day for 6 months or more"}, "prostate cancer": {"system": "prostate cancer", "conditions": "fraction"}, "[4]": {"system": "acute medicamentous kidney lesion"}, "[5]": {"system": "babies of mothers with diabetes / embryos in similar glucose concentration", "conditions": "71%-88% without"}, "homocysteine": {"system": "homocysteine", "conditions": "human, in vivo"}}, "note": "Where a name gives a salt, the structure may show the parent alone. Read-outs that look alike come from different tables or passages of the source."}
{"smiles": "O=C(O)CCCCC1CCSS1", "note": "(stereo not drawn) [alpha_lipoic acid]", "values": [{"measurement": "decrease of the feeling of pain", "setting": "[1]", "result": 6, "unit": "points"}]}
{"smiles": "CN(C)C(=N)N=C(N)N", "note": "[Metformin HCl]", "values": [{"measurement": "women whose menstruation recovered to a normal level", "setting": "[2]", "result": 86.7, "unit": "%"}]}
{"smiles": "CC1=C[C@H](O)CC(C)(C)[C@H]1/C=C/C(C)=C/C=C/C(C)=C/C=C/C=C(C)/C=C/C=C(C)/C=C/C1=C(C)C[C@@H](O)CC1(C)C", "note": "[lutein]", "values": [{"measurement": "patients whose vision was apparently improved", "setting": "[3]", "result": 12, "unit": "patients"}]}
{"smiles": "CC(C)=CCC/C(C)=C/C=C/C(C)=C/C=C/C(C)=C/C=C/C=C(C)/C=C/C=C(C)/C=C/C=C(\\C)CCC=C(C)C", "note": "[lycopene]", "values": [{"measurement": "patients in whom cancer cells proliferation were stopped", "setting": "prostatic carcinoma; human, in vivo", "result": 44, "unit": "%"}, {"measurement": "patients with size of the tumor not over 4 dm^3", "setting": "prostatic carcinoma; taken 3 weeks before the operation, 55% without", "result": 85, "unit": "%"}]}
{"smiles": "[Se]", "note": "[selenium]", "values": [{"measurement": "decrease of the occurrence of prostate cancer", "setting": "prostate cancer", "result": "½-⅓"}]}
{"smiles": "N[C@@H](CCC(=O)N[C@@H](CS)C(=O)NCC(=O)O)C(=O)O", "note": "[glutathione, L-glutamic acid-L-cysteine-glycine]", "values": [{"measurement": "total effectiveness on blood urine", "setting": "[4]; P<0.01", "result": 89, "unit": "%"}, {"measurement": "total effectiveness", "setting": "[4]; P<0.05", "result": 92, "unit": "%"}, {"measurement": "total effectiveness on proteinuria", "setting": "[4]; P<0.05", "result": 57, "unit": "%"}]}
{"smiles": "Nc1nc2ncc(CNc3ccc(C(=O)N[C@@H](CCC(=O)O)C(=O)O)cc3)nc2c(=O)[nH]1", "note": "[folic acid]", "values": [{"measurement": "probability of babies' aplasia", "setting": "[5]; embryos in similar glucose concentration with folic acid", "result": 5, "unit": "%"}, {"measurement": "probability of babies' aplasia", "setting": "[5]; pregnant animals fed with folic acid", "result": 3, "unit": "%"}, {"measurement": "decrease of the level of homocysteine", "setting": "homocysteine", "result": 25, "unit": "%"}]}
